The source of these data is patent US8791130B2, “Aminopyrimidine derivatives as LRRK2 modulators” (Genentech, Inc., priority 2011, dated 2014).

Structures are written as SMILES.

Chain of LRRK2 (Q5S007 970-2527 G2019S): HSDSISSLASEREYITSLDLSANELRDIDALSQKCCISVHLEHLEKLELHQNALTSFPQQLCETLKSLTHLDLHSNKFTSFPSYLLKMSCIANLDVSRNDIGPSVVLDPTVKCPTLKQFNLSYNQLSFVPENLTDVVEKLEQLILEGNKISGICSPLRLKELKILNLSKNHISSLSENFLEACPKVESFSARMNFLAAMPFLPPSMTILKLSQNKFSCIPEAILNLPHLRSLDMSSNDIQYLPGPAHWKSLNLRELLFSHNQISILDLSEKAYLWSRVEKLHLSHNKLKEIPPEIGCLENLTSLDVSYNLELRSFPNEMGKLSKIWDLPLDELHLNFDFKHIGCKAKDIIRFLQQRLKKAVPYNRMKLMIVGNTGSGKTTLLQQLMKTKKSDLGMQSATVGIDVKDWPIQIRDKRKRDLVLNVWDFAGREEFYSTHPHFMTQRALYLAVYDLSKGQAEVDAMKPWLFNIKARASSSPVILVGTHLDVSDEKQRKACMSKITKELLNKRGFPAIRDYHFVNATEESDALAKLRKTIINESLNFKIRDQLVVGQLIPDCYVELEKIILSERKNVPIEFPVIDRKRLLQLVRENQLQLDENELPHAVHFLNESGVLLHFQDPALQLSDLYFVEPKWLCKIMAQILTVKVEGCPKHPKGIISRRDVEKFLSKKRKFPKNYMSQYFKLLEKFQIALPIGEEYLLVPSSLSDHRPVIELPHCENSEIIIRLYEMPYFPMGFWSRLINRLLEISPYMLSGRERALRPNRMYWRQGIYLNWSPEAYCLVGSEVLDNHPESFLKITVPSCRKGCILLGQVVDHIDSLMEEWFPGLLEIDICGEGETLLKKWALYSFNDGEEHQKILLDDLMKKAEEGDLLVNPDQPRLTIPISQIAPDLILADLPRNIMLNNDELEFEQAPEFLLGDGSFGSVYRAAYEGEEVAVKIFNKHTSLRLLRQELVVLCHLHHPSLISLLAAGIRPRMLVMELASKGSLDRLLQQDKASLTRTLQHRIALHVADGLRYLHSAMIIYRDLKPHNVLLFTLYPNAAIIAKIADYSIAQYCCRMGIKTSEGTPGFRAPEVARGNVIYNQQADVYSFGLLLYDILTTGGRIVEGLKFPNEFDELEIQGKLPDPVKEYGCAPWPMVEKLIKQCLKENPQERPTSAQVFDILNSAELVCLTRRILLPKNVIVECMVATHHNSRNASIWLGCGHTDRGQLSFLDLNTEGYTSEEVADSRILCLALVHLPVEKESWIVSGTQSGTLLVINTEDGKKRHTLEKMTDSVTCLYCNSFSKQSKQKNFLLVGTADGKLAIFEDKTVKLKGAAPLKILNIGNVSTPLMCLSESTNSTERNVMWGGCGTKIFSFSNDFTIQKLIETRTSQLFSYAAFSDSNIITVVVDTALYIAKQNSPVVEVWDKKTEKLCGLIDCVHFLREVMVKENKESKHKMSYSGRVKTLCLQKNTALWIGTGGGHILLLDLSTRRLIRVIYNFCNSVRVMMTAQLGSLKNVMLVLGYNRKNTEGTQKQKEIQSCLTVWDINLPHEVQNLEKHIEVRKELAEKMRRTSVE

The target of this test is LRRK2 (Homo sapiens (Human), UniProt Q5S007, G2019S). In words: In Vitro LRRK2 LabChip Assay (LRRK2 Ki). Format: biochemical. The protocol:
In Vitro LRRK2 LabChip Assay This assay was used to determine a compound's potency in inhibiting activity of LRRK2 by determining, Kiapp, IC50, or percent inhibition values. In a polypropylene plate, LRRK2, fluorescently-labeled peptide substrate, ATP and test compound were incubated together. Using a LabChip 3000 (Caliper Life Sciences), after the reaction the substrate was separated by capillary electrophoresis into two populations: phosphorylated and unphosphorylated. The relative amounts of each were quantitated by fluorescence intensity. LRRK2 Ki was determined according to the equation: […]))). Ki values in Table 4 and elsewhere herein are shown in μM. […] Substrate: 5[…] Non-binding plate: 384 well clear V-bottom polypropylene plates (Greiner cat #781280). ATP: 10 mM ATP (Cell Signaling cat #9804). Triton X-100: Triton X-100. Brij-35: Brij-35 (Pierce cat #20150). […] DMSO: DMSO (Sigma cat #34869-100 ML). […] Compound Plate Preparation: For serial dilutions, 34.6 μl DMSO was added to columns 3-24. For the assay controls, 37.5 μl DMSO was added to columns 1 and 2 of rows A and […]-028831 (Staurosporine) was added to columns 1 and 2, row B. […] A Precision instrument was used to perform 1:3.16 serial dilutions (“PLK_BM_serial_halflog”). ATP Preparation: ATP was diluted to 282.1 μM in Complete Kinase Buffer (final concentration was 130 μM). […] Assay Procedure: To a 50 μl polypropylene plate, 5 μl/well buffer/substrate was added by hand to Blank wells. A Biomek FX was used to start the kinase reaction (“PLK SAR 23 ATP”). […] 5 μl/well kinase/substrate in Assay Plate; The plate was incubated for 2 hours in the dark. Biomek FX was used to stop the kinase reaction (“PLK Stop”), and 10 μl/well Stop solution was added to the Assay Plate.
Consider `CNc1nc(Nc2cc(C)c(-n3nnnc3C)cc2OC)ncc1C(F)(F)F` [Compound 45, N2-(2-methoxy-5-methyl-4-(5-methyl-1H-tetrazol-1-yl)phenyl)-N4-methyl-5-(trifluoromethyl) pyrimidine-2,4-diamine], for which the inhibition constant (Ki) (in general, the dissociation constant of the complex between target and ligand, obtained from inhibition or displacement) was determined as 1 nM.
Under `CNc1nc(Nc2cc(F)c(-c3cnn(C)c3C(=O)N(C)C)cc2OC)ncc1C(F)(F)F` [Compound 41, 4-(2-fluoro-5-methoxy-4-(4-(methylamino)-5-(trifluoromethyl)pyrimidin-2-ylamino)phenyl)-N,N,1-trimethyl-1H-pyrazole-5-carboxamide] stands 1 nM; under `CNc1nc(Nc2cc(OC)c(-c3ccnn3C)cc2Cl)ncc1C(F)(F)F` [Compound 28, N^2-(2-chloro-5-methoxy-4-(1-methyl-1H-pyrazol-5-yl)phenyl)-N^4-methyl-5-(trifluoromethyl) pyrimidine-2,4-diamine], 5 nM; under `CNc1nc(Nc2ccc(-n3nc(C)cc3COC)cc2OC)ncc1C(F)(F)F` [Compound 48, N2-(2-methoxy-4-(5-(methoxymethyl)-3-methyl-1H-pyrazol-1-yl)phenyl)-N4-methyl-5-(trifluoromethyl) pyrimidine-2,4-diamine], 10 nM.
Under `CNc1nc(Nc2cc(F)c(-c3cnn(C4COC4)c3)cc2OC)ncc1C(F)(F)F` [Compound 44, N2-(5-fluoro-2-methoxy-4-(1-(oxetan-3-yl)-1H-pyrazol-4-yl)phenyl)-N4-methyl-5-(trifluoromethyl) pyrimidine-2,4-diamine] stands 10 nM.
Then `CNc1nc(Nc2ccc(-n3cnnn3)cc2OC)ncc1C(F)(F)F` [Compound 27, N^2-(2-methoxy-4-(1H-tetrazol-1-yl)phenyl)-N^4-methyl-5-(trifluoromethyl) pyrimidine-2,4-diamine], with 2 nM; and `CNc1nc(Nc2cc(OC)c(-c3cncn3C)cc2Cl)ncc1C(F)(F)F` [Compound 21, N^2-(2-chloro-5-methoxy-4-(1-methyl-1H-imidazol-5-yl)phenyl)-N^4-methyl-5-(trifluoromethyl) pyrimidine-2,4-diamine], with 3 nM.
For `CNc1nc(Nc2ccc(-c3nnnn3C)cc2Cl)ncc1C(F)(F)F` [Compound 2, N2-(2-chloro-4-(1-methyl-1H-tetrazol-5-yl)phenyl)-N4-methyl-5-(trifluoromethyl) pyrimidine-2,4-diamine], affinity was put at a Ki of 7 nM.
`CNc1nc(Nc2ccc(-c3cn(C)nc3C)cc2OC)ncc1C(F)(F)F` [Compound 38, N2-(4-(1,3-dimethyl-1H-pyrazol-4-yl)-2-methoxyphenyl)-N4-methyl-5-(trifluoromethyl) pyrimidine-2,4-diamine] registered a Ki of 2 nM.
With `CNc1nc(Nc2cc(C)c(-n3nnnc3COC)cc2OC)ncc1C(F)(F)F` [Compound 46, N2-(2-methoxy-4-(5-(methoxymethyl)-1H-tetrazol-1-yl)-5-methylphenyl)-N4-methyl-5-(trifluuromethyl) pyrimidine-2,4-diamine], the affinity corresponds to a Ki of 1 nM.
Under `CNc1nc(Nc2ccc(-c3c(C)noc3C)cc2OC)ncc1C(F)(F)F` [Compound 26, N^2-(4-(3,5-dimethylisoxazol-4-yl)-2-methoxyphenyl)-N^4-methyl-5-(trifluoromethyl) pyrimidine-2,4-diamine] stands 1 nM; under `CNc1nc(Nc2cc(F)c(-n3nnnc3COC)cc2OC)ncc1C(F)(F)F` [Compound 49, N2-(5-fluoro-2-methoxy-4-(5-(methoxymethyl)-1H-tetrazol-1-yl)phenyl)-N4-methyl-5-(trifluoromethyl) pyrimidine-2,4-diamine], 4 nM; under `CNc1nc(Nc2cc(OC)c(-c3nnc(C)o3)cc2Cl)ncc1C(F)(F)F` [Compound 7, N2-(2-chloro-5-methoxy-4-(5-methyl-1,3,4-oxadiazol-2-yl)phenyl)-N4-methyl-5-(trifluoromethyl) pyrimidine-2,4-diamine], 8 nM.
Then `CNc1nc(Nc2ccc(-c3cnn(C)c3)cc2OC)ncc1C(F)(F)F` [Compound 5, N2-(2-methoxy-4-(1-methyl-1H-pyrazol-4-yl)phenyl)-N4-methyl-5-(trifluoromethyl) pyrimidine-2,4-diamine], with 4 nM.
Then `CNc1nc(Nc2ccc(-n3cncn3)cc2OC)ncc1C(F)(F)F` [Compound 4, N2-(2-methoxy-4-(1H-1,2,4-triazol-1-yl)phenyl)-N4-methyl-5-(trifluoromethyl) pyrimidine-2,4-diamine], with 3 nM; and `CNc1nc(Nc2ccc(-c3nnnn3C)cc2OC)ncc1C(F)(F)F` [Compound 20, N^2-(2-methoxy-4-(1-methyl-1H-tetrazol-5-yl)phenyl)-N^4-methyl-5-(trifluoromethyl) pyrimidine-2,4-diamine], with 3 nM.
Consider `CNc1nc(Nc2cc(F)c(-c3nc(C)no3)cc2OC)ncc1C(F)(F)F` [Compound 6, N2-(5-fluoro-2-methoxy-4-(3-methyl-1,2,4-oxadiazol-5-yl)phenyl)-N4-methyl-5-(trifluoromethyl) pyrimidine-2,4-diamine], for which affinity was put at a Ki of 32 nM.
Under `CNc1nc(Nc2ccc(-c3nccn3C)cc2OC)ncc1Cl` [Compound 15, 5-chloro-N^2-(2-methoxy-4-(1-methyl-1H-imidazol-2-yl)phenyl)-N^4-methylpyrimidine-2,4-diamine] stands 7 nM; under `CNc1nc(Nc2ccc(-c3nc(C)no3)cc2Cl)ncc1Cl` [Compound 34, 5-chloro-N^2-(2-chloro-4-(3-methyl-1,2,4-oxadiazol-5-yl)phenyl)-N^4-methylpyrimidine-2,4-diamine], 80 nM.
